Measured values published in patent US20090274655A1, “2-CARBOXY THIOPHENE DERIVATIVES AS ANTI VIRAL AGENTS” (priority 2006, published 2009).

Legend:
[1] = tested on: sub-genomic HCV NS3-NS5B replicon of genotype 1b (ET subline) in Huh-7 cells; test: 1b luciferase replicon assay (replicon luciferase cell based assay); set-up: species or system HCV genotype 1b; conditions: Hepatitis C virus, Huh-7, 48 h, read-out: IC50 in the 1b luciferase replicon assay
Method: (§1) Replicon Luciferase Cell Based Assay
(§2) A 40 mM stock solution in DMSO of each test compound was further diluted into 50 μL of DMSO in the first row of a 96 well, V-bottom microplate, to give 100 times the top concentration of the required dilution series. Aliquots of 25 μL of DMSO were added to each well of the remaining rows, and doubling dilutions of compound were prepared by the serial transfer of 25 μL volumes from the first row onwards. A PlateMate™ robot was used to transfer 1 μL volumes from each dilution well into duplicate wells of a clear bottom, black walled, 96 well assay plate (COSTAR #3603). Control wells received 1 μL of DMSO alone. […]
(§3) One tablet of Resazurin (Fisher #R/0040/79) was dissolved in 50 mL of phosphate buffered saline and 100 μL of solution added to all wells. The plate was re-incubated at 37° C. for a further 2-4 hours, wrapped in aluminium foil, before reading in a FLUOStar Optima at 595 nm. […] The plate was then read for luminescence on a TopCount® NXT™.
(§4) Potency: The luminescence values from all compound-free wells containing cells were averaged to obtain a positive control value. The mean luminescence value from the compound-free wells that had received no cells was used to provide the negative (background) control value. […] The quantifiable and specific reduction of luciferase signal in the presence of a drug is a direct measure of replicon inhibition. […]

[2] = tested on: sub-genomic HCV NS3-NS5B replicon of genotype 1a (subline 1.19) in Huh-7 cells; test: 1a luciferase replicon assay (replicon luciferase cell based assay); set-up: species or system HCV genotype 1a; conditions: Hepatitis C virus, genotype 1a replicon, firefly luciferase reporter, 48 hours
Method: as §1, §2, §3, §4

## CC(C)N(c1cc(-c2ccc(NC(=O)c3cscn3)cc2)sc1C(=O)O)C(=O)[C@H]1CC[C@H](C)CC1 [Example 1, 3-[[(trans-4-Methylcyclohexyl)carbonyl](1-methylethyl)amino]-5-{4-[(1,3-thiazol-4-ylcarbonyl)amino]phenyl}-2-thiophenecarboxylic acid]
[1]
  IC50: < 0.1 µM
[2]
  IC50: < 0.1 µM
